{
  "source": "patent US10564084B2",
  "about": "“Rapid characterization of the solubility of amphiphiles” (The Trustees of Princeton University, priority 2013, dated 2020)",
  "origin": "cited, not measured here",
  "settings": "in water; used to rescale the concentration c",
  "data": [
    {"smiles": "CCCCCCCCCCCCCCCC[N+](C)(C)C.[Cl-]", "note": "[C16TAC, hexadecyl trimethylammonium chloride]", "values": [
      {"measurement": "critical micellar concentration cmc", "result": 1.6, "unit": "mM"}
    ]}
  ]
}
